Key:
Matricaria inodora [1] = assay: Post-emergence herbicidal effect; assay type: in vivo; conditions: assessed visually after about 3 weeks vs untreated controls
Method in brief: (§1)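 Herbicidal effect was rated visually roughly 3 weeks after foliar treatment, as % versus untreated plants, with 0% meaning the same as controls and 100% meaning dead. Plants were treated at the one-leaf stage in the greenhouse with aqueous WP or EC sprays at 600–800 L/ha containing 0.2% wetter.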

Polygonum convolvulus [2] = assay: Post-emergence herbicidal effect; assay type: in vivo; conditions: assessed visually after about 3 weeks vs untreated controls
Method in brief: as §1

Stellaria media [3] = assay: Post-emergence herbicidal effect; assay type: in vivo; conditions: assessed visually after about 3 weeks vs untreated controls
Method in brief: as §1

Echinochloa crus-galli [4] = assay: Post-emergence herbicidal effect; assay type: in vivo; conditions: assessed visually after about 3 weeks vs untreated controls
Method in brief: as §1

Alopecurus myosuroides [5] = assay: Post-emergence herbicidal effect; assay type: in vivo; conditions: 320 g/ha, assessed visually after about 3 weeks vs untreated controls
Method in brief: as §1

Abutilon theophrasti [6] = assay: Post-emergence herbicidal effect; assay type: in vivo; conditions: assessed visually after about 3 weeks vs untreated controls
Method in brief: as §1

Ipomoea purpurea = assay: Post-emergence herbicidal effect; assay type: in vivo; conditions: assessed visually after about 3 weeks vs untreated controls
Method in brief: as §1

Avena fatua [7] = assay: Post-emergence herbicidal effect; assay type: in vivo; conditions: 320 g/ha, assessed visually after about 3 weeks vs untreated controls
Method in brief: as §1

Veronica persica [8] = assay: Post-emergence herbicidal effect; assay type: in vivo; conditions: assessed visually after about 3 weeks vs untreated controls
Method in brief: as §1

Amaranthus retroflexus [9] = assay: Post-emergence herbicidal effect; assay type: in vivo; conditions: assessed visually after about 3 weeks vs untreated controls
Method in brief: as §1

Setaria viridis [10] = assay: Post-emergence herbicidal effect; assay type: in vivo; conditions: assessed visually after about 3 weeks vs untreated controls
Method in brief: as §1

Viola tricolor [11] = assay: Post-emergence herbicidal effect; assay type: in vivo; conditions: assessed visually after about 3 weeks vs untreated controls
Method in brief: as §1

Matricaria inodora [12] = assay: Pre-emergence herbicidal effect; assay type: in vivo; conditions: scored visually after 3 weeks
Method in brief: (§2)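 Pre-emergence soil-surface application of compound as WP or EC in water (600 to 800 L/ha, 0.2% wetting agent) to freshly sown, soil-covered seeds in sandy loam. After 3 weeks under greenhouse conditions, percent activity rated by eye versus untreated plants, from 0% (no effect) to 100% (death).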

Polygonum convolvulus [13] = assay: Pre-emergence herbicidal effect; assay type: in vivo; conditions: scored visually after 3 weeks
Method in brief: as §2

Stellaria media [14] = assay: Pre-emergence herbicidal effect; assay type: in vivo; conditions: scored visually after 3 weeks
Method in brief: as §2

Echinochloa crus-galli [15] = assay: Pre-emergence herbicidal effect; assay type: in vivo; conditions: scored visually after 3 weeks
Method in brief: as §2

Alopecurus myosuroides [16] = assay: Pre-emergence herbicidal effect; assay type: in vivo; conditions: scored visually after 3 weeks
Method in brief: as §2

Abutilon theophrasti [17] = assay: Pre-emergence herbicidal effect; assay type: in vivo; conditions: scored visually after 3 weeks
Method in brief: as §2

Avena fatua [18] = assay: Pre-emergence herbicidal effect; assay type: in vivo; conditions: scored visually after 3 weeks
Method in brief: as §2

Veronica persica [19] = assay: Pre-emergence herbicidal effect; assay type: in vivo; conditions: scored visually after 3 weeks
Method in brief: as §2

Amaranthus retroflexus [20] = assay: Pre-emergence herbicidal effect; assay type: in vivo; conditions: scored visually after 3 weeks
Method in brief: as §2

Lolium multiflorum [21] = assay: Pre-emergence herbicidal effect; assay type: in vivo; conditions: scored visually after 3 weeks
Method in brief: as §2

Setaria viridis [22] = assay: Pre-emergence herbicidal effect; assay type: in vivo; conditions: scored visually after 3 weeks
Method in brief: as §2

Viola tricolor [23] = assay: Pre-emergence herbicidal effect; assay type: in vivo; conditions: scored visually after 3 weeks
Method in brief: as §2

Lolium multiflorum [24] = assay: Post-emergence herbicidal effect; assay type: in vivo; conditions: assessed visually after about 3 weeks vs untreated controls
Method in brief: as §1

logP (HCOOH) = assay type: physicochemical; conditions: HCOOH
Description: Table 2 (physicochemical characterization of selected synthesis examples)

Cc1cc2c(s1)CCCC2Nc1ncc(C(F)(F)F)c(N)n1 (racemic) [compound 11]
post-emergence efficacy MATIN (Matricaria inodora [1]; 80 g/ha): 90%
post-emergence efficacy MATIN (Matricaria inodora [1]; 320 g/ha): 100%
post-emergence efficacy POLCO (Polygonum convolvulus [2]; 80 g/ha): 90%
post-emergence efficacy POLCO (Polygonum convolvulus [2]; 320 g/ha): 90%
post-emergence efficacy STEME (Stellaria media [3]; 80 g/ha): 90%
post-emergence efficacy STEME (Stellaria media [3]; 320 g/ha): 100%
post-emergence efficacy ECHCG (Echinochloa crus-galli [4]; 80 g/ha): 100%
post-emergence efficacy ECHCG (Echinochloa crus-galli [4]; 320 g/ha): 100%
post-emergence efficacy ALOMY (Alopecurus myosuroides [5]): 90%
post-emergence efficacy ABUTH (Abutilon theophrasti [6]; 80 g/ha): 100%
post-emergence efficacy ABUTH (Abutilon theophrasti [6]; 320 g/ha): 100%
post-emergence efficacy PHBPU (Ipomoea purpurea; 80 g/ha): 90%
post-emergence efficacy PHBPU (Ipomoea purpurea; 320 g/ha): 90%
post-emergence efficacy AVEFA (Avena fatua [7]): 80%
post-emergence efficacy VERPE (Veronica persica [8]; 80 g/ha): 80%
post-emergence efficacy VERPE (Veronica persica [8]; 320 g/ha): 90%
post-emergence efficacy AMARE (Amaranthus retroflexus [9]; 80 g/ha): 90%
post-emergence efficacy AMARE (Amaranthus retroflexus [9]; 320 g/ha): 90%
post-emergence efficacy SETVI (Setaria viridis [10]; 80 g/ha): 90%
post-emergence efficacy SETVI (Setaria viridis [10]; 320 g/ha): 90%
post-emergence efficacy VIOTR (Viola tricolor [11]; 80 g/ha): 100%
post-emergence efficacy VIOTR (Viola tricolor [11]; 320 g/ha): 100%
MATIN pre-emergence efficacy (herbicidal activity) (Matricaria inodora [12]; Dosage 80 g/ha): 100%
MATIN pre-emergence efficacy (herbicidal activity) (Matricaria inodora [12]; Dosage 320 g/ha): 100%
POLCO pre-emergence efficacy (herbicidal activity) (Polygonum convolvulus [13]; Dosage 80 g/ha): 100%
POLCO pre-emergence efficacy (herbicidal activity) (Polygonum convolvulus [13]; Dosage 320 g/ha): 100%
STEME pre-emergence efficacy (herbicidal activity) (Stellaria media [14]; Dosage 80 g/ha): 100%
STEME pre-emergence efficacy (herbicidal activity) (Stellaria media [14]; Dosage 320 g/ha): 100%
ECHCG pre-emergence efficacy (herbicidal activity) (Echinochloa crus-galli [15]; Dosage 80 g/ha): 100%
ECHCG pre-emergence efficacy (herbicidal activity) (Echinochloa crus-galli [15]; Dosage 320 g/ha): 100%
ALOMY pre-emergence efficacy (herbicidal activity) (Alopecurus myosuroides [16]; Dosage 80 g/ha): 90%
ALOMY pre-emergence efficacy (herbicidal activity) (Alopecurus myosuroides [16]; Dosage 320 g/ha): 100%
ABUTH pre-emergence efficacy (herbicidal activity) (Abutilon theophrasti [17]; Dosage 80 g/ha): 100%
AVEFA pre-emergence efficacy (herbicidal activity) (Avena fatua [18]; Dosage 80 g/ha): 60%
AVEFA pre-emergence efficacy (herbicidal activity) (Avena fatua [18]; Dosage 320 g/ha): 90%
VERPE pre-emergence efficacy (herbicidal activity) (Veronica persica [19]; Dosage 80 g/ha): 100%
VERPE pre-emergence efficacy (herbicidal activity) (Veronica persica [19]; Dosage 320 g/ha): 100%
AMARE pre-emergence efficacy (herbicidal activity) (Amaranthus retroflexus [20]; Dosage 80 g/ha): 100%
AMARE pre-emergence efficacy (herbicidal activity) (Amaranthus retroflexus [20]; Dosage 320 g/ha): 100%
LOLMU pre-emergence efficacy (herbicidal activity) (Lolium multiflorum [21]; Dosage 80 g/ha): 100%
LOLMU pre-emergence efficacy (herbicidal activity) (Lolium multiflorum [21]; Dosage 320 g/ha): 100%
SETVI pre-emergence efficacy (herbicidal activity) (Setaria viridis [22]; Dosage 80 g/ha): 100%
SETVI pre-emergence efficacy (herbicidal activity) (Setaria viridis [22]; Dosage 320 g/ha): 100%
VIOTR pre-emergence efficacy (herbicidal activity) (Viola tricolor [23]; Dosage 80 g/ha): 100%
VIOTR pre-emergence efficacy (herbicidal activity) (Viola tricolor [23]; Dosage 320 g/ha): 100%

Cc1cc2c(s1)CC(C)C2Nc1ncc(S(C)(=O)=O)c(N)n1 (racemic) [compound 17]
post-emergence efficacy MATIN (Matricaria inodora [1]; 320 g/ha): 80%
post-emergence efficacy POLCO (Polygonum convolvulus [2]; 80 g/ha): 80%
post-emergence efficacy POLCO (Polygonum convolvulus [2]; 320 g/ha): 80%
post-emergence efficacy STEME (Stellaria media [3]; 320 g/ha): 100%
post-emergence efficacy ECHCG (Echinochloa crus-galli [4]; 80 g/ha): 80%
post-emergence efficacy ECHCG (Echinochloa crus-galli [4]; 320 g/ha): 100%
post-emergence efficacy ALOMY (Alopecurus myosuroides [5]): 90%
post-emergence efficacy ABUTH (Abutilon theophrasti [6]; 320 g/ha): 100%
post-emergence efficacy PHBPU (Ipomoea purpurea; 320 g/ha): 0%
post-emergence efficacy AVEFA (Avena fatua [7]): 100%
post-emergence efficacy VERPE (Veronica persica [8]; 320 g/ha): 100%
post-emergence efficacy AMARE (Amaranthus retroflexus [9]; 320 g/ha): 100%
post-emergence efficacy LOLMU (Lolium multiflorum [24]; 80 g/ha): 90%
post-emergence efficacy LOLMU (Lolium multiflorum [24]; 320 g/ha): 100%
post-emergence efficacy SETVI (Setaria viridis [10]; 320 g/ha): 100%
post-emergence efficacy VIOTR (Viola tricolor [11]; 320 g/ha): 90%
logP (HCOOH) (logP (HCOOH)): oily; logP (HCOOH): 2.11; 1H NMR (CDCl3, 400 MHZ, δ in ppm): 1.30 (d, 3H, 3H of
MATIN pre-emergence efficacy (herbicidal activity) (Matricaria inodora [12]; Dosage 80 g/ha): 100%
MATIN pre-emergence efficacy (herbicidal activity) (Matricaria inodora [12]; Dosage 320 g/ha): 100%
POLCO pre-emergence efficacy (herbicidal activity) (Polygonum convolvulus [13]; Dosage 320 g/ha): 100%
STEME pre-emergence efficacy (herbicidal activity) (Stellaria media [14]; Dosage 80 g/ha): 100%
STEME pre-emergence efficacy (herbicidal activity) (Stellaria media [14]; Dosage 320 g/ha): 100%
ECHCG pre-emergence efficacy (herbicidal activity) (Echinochloa crus-galli [15]; Dosage 80 g/ha): 100%
ECHCG pre-emergence efficacy (herbicidal activity) (Echinochloa crus-galli [15]; Dosage 320 g/ha): 100%
ALOMY pre-emergence efficacy (herbicidal activity) (Alopecurus myosuroides [16]; Dosage 320 g/ha): 100%
ABUTH pre-emergence efficacy (herbicidal activity) (Abutilon theophrasti [17]; Dosage 80 g/ha): 80%
ABUTH pre-emergence efficacy (herbicidal activity) (Abutilon theophrasti [17]; Dosage 320 g/ha): 100%
VERPE pre-emergence efficacy (herbicidal activity) (Veronica persica [19]; Dosage 80 g/ha): 100%
VERPE pre-emergence efficacy (herbicidal activity) (Veronica persica [19]; Dosage 320 g/ha): 100%
AMARE pre-emergence efficacy (herbicidal activity) (Amaranthus retroflexus [20]; Dosage 80 g/ha): 100%
AMARE pre-emergence efficacy (herbicidal activity) (Amaranthus retroflexus [20]; Dosage 320 g/ha): 100%
SETVI pre-emergence efficacy (herbicidal activity) (Setaria viridis [22]; Dosage 80 g/ha): 60%
SETVI pre-emergence efficacy (herbicidal activity) (Setaria viridis [22]; Dosage 320 g/ha): 100%
VIOTR pre-emergence efficacy (herbicidal activity) (Viola tricolor [23]; Dosage 80 g/ha): 100%
VIOTR pre-emergence efficacy (herbicidal activity) (Viola tricolor [23]; Dosage 320 g/ha): 100%

— patent publication US10251395B2, “Substituted furano-/thienocycloalkylamino-2-pyrimidine derivatives and use thereof for controlling undesired plant growth” (Bayer CropScience Aktiengesellschaft, priority 2015, dated 2019)
